Measured values as given in ChEMBL document CHEMBL1152429, “Design and synthesis of new 1,3-benzthiazinan-4-one derivatives as selective cyclooxygenase (COX-2) inhibitors” (Bioorg Med Chem, 2009).

target: T1, Prostaglandin G/H synthase 1 (Ovis aries, UniProt P05979)
T1 sequence (P05979 whole entry): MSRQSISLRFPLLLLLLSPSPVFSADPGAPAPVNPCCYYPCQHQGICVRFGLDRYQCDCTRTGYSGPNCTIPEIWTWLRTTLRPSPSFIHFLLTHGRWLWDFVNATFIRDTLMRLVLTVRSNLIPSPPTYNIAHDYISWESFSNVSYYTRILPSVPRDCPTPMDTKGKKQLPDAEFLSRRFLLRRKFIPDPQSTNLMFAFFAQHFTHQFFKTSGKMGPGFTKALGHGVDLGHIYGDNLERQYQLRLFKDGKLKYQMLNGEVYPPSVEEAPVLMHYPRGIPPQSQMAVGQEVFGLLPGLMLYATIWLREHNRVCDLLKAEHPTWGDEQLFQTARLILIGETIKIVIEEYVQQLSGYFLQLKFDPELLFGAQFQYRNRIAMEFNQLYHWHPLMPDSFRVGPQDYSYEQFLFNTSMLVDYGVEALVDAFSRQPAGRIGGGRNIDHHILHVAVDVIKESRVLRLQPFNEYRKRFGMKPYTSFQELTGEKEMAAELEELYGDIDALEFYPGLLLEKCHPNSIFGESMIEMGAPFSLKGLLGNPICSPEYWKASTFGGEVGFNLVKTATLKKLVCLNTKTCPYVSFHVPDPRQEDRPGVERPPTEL
Description: Inhibition of ovine COX1 by chemiluminescence assay

`CS(=O)(=O)c1ccc(C2Sc3ccccc3C(=O)N2Cc2ccccc2)cc1` (configuration not stated) and `CS(=O)(=O)c1ccc(C2Sc3ccccc3C(=O)N2CCc2ccccc2)cc1` (configuration not stated) are within 1.5-fold of each other in IC50: 15.8 µM for the first, 15.9 µM for the second.

`Cc1ccc(N2C(=O)c3ccccc3SC2c2ccc(S(C)(=O)=O)cc2)cc1` (configuration not stated) and `CS(=O)(=O)c1ccc(C2Sc3ccccc3C(=O)N2c2ccc(F)cc2)cc1` (configuration not stated) are within 1.5-fold of each other in IC50: 16.1 µM for the first, 13 µM for the second.

`COc1ccc(N2C(=O)c3ccccc3SC2c2ccc(S(C)(=O)=O)cc2)cc1` (configuration not stated) and `CS(=O)(=O)c1ccc(C2Sc3ccccc3C(=O)N2c2ccccc2)cc1` (configuration not stated) are within 1.5-fold of each other in IC50: 14.8 µM for the first, 16.5 µM for the second.

species: Ovis aries; test: Selectivity index, ratio of IC50 for ovine COX1 to IC50 for ovine COX2

`Cc1ccc(N2C(=O)c3ccccc3SC2c2ccc(S(C)(=O)=O)cc2)cc1` (configuration not stated) gave a Ratio IC50 of 252.
